Where two headings read alike, the source gives them in different places.
Assays:
TRKA [1] = molecular target: T1, TRKA (Homo sapiens (Human), UniProt P04629); experiment: Mobility shift assay, TRKA kinase; assay type: biochemical; details: ATP 47.8 μM
From the text: (§1) The operation is described as follows:
(§2) Conversion %_Sample: conversion rate of sample;

ROS1 = ROS1 (Homo sapiens (Human), UniProt P08922); experiment: Mobility shift assay, ROS1 kinase; assay type: biochemical; details: ATP 26.7 μM
From the text: as §1, §2

TRKB = TRKB (Homo sapiens (Human), UniProt Q16620); experiment: Mobility shift assay, TRKB kinase; details: read-out: TRKB IC50, ATP 71.2 μM
Protocol: (§9) The inhibitory activity of compounds on TRKA, TRKB, TRKC and ROS1 kinase was analyzed with Mobility shift assay. The screening platform is MSA based microfluidic chip technology, which applies the basic concept of capillary electrophoresis to microfluidic environment. The substrate used in the experiment is a poly-peptide labeled with fluorescent. Under the catalysis of enzyme in the reaction system, the substrate is transformed into a product, with the charge changed accordingly. MSA technology could detect the substrate and the product with different charge separately.
(§10) The compound powder was dissolved in 100% DMSO (Sigma, Cat. D8418-1l) to prepare a 10 mM storage solution. […] The reaction was carried out at room temperature for 30 min/40 min/20 min/20 min respectively. After the reaction was terminated, the conversion rate was read by Caliper EZ Reader II.
(§11) Conversion %_Min: mean value of negative control, representing the conversion rate without enzyme activity;
(§12) Conversion %_Max: mean value of positive control, which represents the conversion rate reading without compound inhibition.
(§13) Taking the log value of concentration as X axis and the percentage inhibition rate as Y axis, the dose response curve was fitted by the analysis software GraphPad Prism 5, thus the IC50 value of each compound on enzyme activity inhibition was obtained.

TRKC = TRKC (Homo sapiens (Human), UniProt Q16288); experiment: Mobility shift assay, TRKC kinase; details: read-out: TRKC IC50, ATP 44.4 μM
Protocol: as §9, §10, §11, §12, §13

TRKA [2] = molecular target: T1, TRKA; experiment: HTRF kinase activity assay, TRKA; assay type: biochemical; details: 90 μM ATP
Protocol: The IC50 values of the compounds were calculated using XLFIT5 (IDBS) software.

Ba/F3 LMNA-NTRK1-WT = experiment: Cell proliferation inhibition (CellTiter-Glo), Ba/F3 LMNA-NTRK1-WT; assay type: cell-based; details: Mus musculus, BaF3, 72 h, test batch marked *
From the text: (§3) 4. Inhibitory Effect of Compounds on the Proliferation of TRK Fusion and Mutant Stable Cell Lines (IC50)
(§4) Six cell lines including Ba/F3 LMNA-NTRK1-WT, Ba/F3 LMNA-NTRK1-G595R, Ba/F3 ETV6-NTRK2-WT, Ba/F3 ETV6-NTRK2-G639R, Ba/F3 ETV6-NTRK2-G639R and Ba/F3 ETV6-NTRK3-G623R were used in this experiment.
(§5) The operation is described briefly as follows:
(§6) The cells in logarithmic growth phase were harvested to ensure that the cell viability was above 90%. […] Then each well containing the cells of the 96-well plate was added the compound solutions, 3 wells for each compound solution, and continued to incubate for another 72 hrs. Then CellTiter-Glo® kit (Promega, Cat #G7572) was used to do the detection. First, the CTG reagent was melted and the cell plate was balanced to room temperature. The same volume of CTG solution was added into each well and vibrated on the shaker for 5 minutes to lyse the cells. The cell plate was kept at room temperature for 20 minutes to stabilize the luminescent signal. […] Cell survival rate (%)=(1umdrug−1ummedium)/(1umcell−lummedium)×100%

Ba/F3 LMNA-NTRK1-G595R = experiment: Cell proliferation inhibition (CellTiter-Glo), Ba/F3 LMNA-NTRK1-G595R; assay type: cell-based; details: Mus musculus, BaF3, 72 h, test batch marked *
From the text: as §3, §4, §5, §6

Ba/F3 ETV6-NTRK2-WT = experiment: Cell proliferation inhibition (CellTiter-Glo), Ba/F3 ETV6-NTRK2-WT; assay type: cell-based; details: Mus musculus, BaF3, 72 h, read-out: IC50 proliferation Ba/F3 ETV6-NTRK2-WT
Protocol: as §3
(§7) Six cell lines including Ba/F3 LMNA-NTRK1-WT, Ba/F3 LMNA-NTRK1-G595R, Ba/F3 ETV6-NTRK2-WT, Ba/F3 ETV6-NTRK2-G639R, Ba/F3 ETV6-NTRK2-G639R and Ba/F3 ETV6-NTRK3-G623R were used in this experiment. For the six cell lines, the maximum test concentration of the compound was 1 μM, 1 μM, 10 μM, […], 1 μM and 10 μM, were 3.16-fold gradient diluted to obtain 9 samples.
as §5
(§8) The cells in logarithmic growth phase were harvested to ensure that the cell viability was above 90%. 3000 cell/well were seeded in 96-well plate (Corning, Cat #3603). The cells were incubated overnight with 5% CO2, 95% humidity at 37° C. Then each well containing the cells of the 96-well plate was added the compound solutions, 3 wells for each compound solution, and continued to incubate for another 72 hrs. Then CellTiter-Glo® kit (Promega, Cat #G7572) was used to do the detection. First, the CTG reagent was melted and the cell plate was balanced to room temperature. The same volume of CTG solution was added into each well and vibrated on the shaker for 5 minutes to lyse the cells. The cell plate was kept at room temperature for 20 minutes to stabilize the luminescent signal. The luminescent value was collected by SpectraMax microplate detector (MD, 2104-0010A). […] Cell survival rate (%)=(1umdrug−1ummedium)/(1umcell−lummedium)×100%

Ba/F3 ETV6-NTRK2-G639R = experiment: Cell proliferation inhibition (CellTiter-Glo), Ba/F3 ETV6-NTRK2-G639R; assay type: cell-based; details: Mus musculus, BaF3, 72 h, read-out: IC50 proliferation Ba/F3 ETV6-NTRK2-G639R
Protocol: as §3, §7, §5, §8

Ba/F3 ETV6-NTRK3-WT = experiment: Cell proliferation inhibition (CellTiter-Glo), Ba/F3 ETV6-NTRK3-WT; assay type: cell-based; details: Mus musculus, BaF3, 72 h, read-out: IC50 proliferation Ba/F3 ETV6-NTRK3-WT
Ba/F3 LMNA-NTRK3-G623R = experiment: Cell proliferation inhibition (CellTiter-Glo), Ba/F3 LMNA-NTRK3-G623R; assay type: cell-based; details: Mus musculus, BaF3, 72 h, read-out: IC50 proliferation Ba/F3 LMNA-NTRK3-G623R
[3] = Pharmacokinetic analysis in rats; assay type: in vivo, Male SD rats; details: male, SD, plasma; rat, PO, 5 mg/kg
Protocol: 6. Pharmacokinetic Analysis
Male SD rats were grouped, each group having 3 rats. […] Animals were fasted overnight from 10 hours before administration to 4 hours after administration. Blood samples were collected at 0.25, 0.5, 1, 2, 4, 8 and 24 hours after administration in the oral group and at 0.083, 0.25, 0.5, 1, 2, 4, 8 and 24 hours after injection in the intravenous group. After isoflurane anesthesia, 0.3 ml whole blood collected through the fundus vein plexus was put into the heparin anticoagulant tube. The sample was centrifuged at 4° C. at 4000 rpm for 5 min. The plasma was transferred into the centrifuge tube and stored at −80° C. until analysis. The extract from the plasma extracted by protein precipitation was analyzed by LC/MS/MS.

[4] = Blood-to-brain distribution in rats; assay type: in vivo; details: male, SD, rat, 10 mg/kg single oral gavage
Protocol: 7. Blood-to-Brain Distribution
Male SD rats were grouped, each group having 12 rats. Each group was given the compound of Examples (10 mg/kg) by single oral gavage. The animals were fasted overnight from 10 hours before administration to 4 hours after administration. The rats were killed at 0.5, 1, 4 and 12 hours after administration, and blood and brain tissues were collected. The samples were centrifuged at 4000 rpm at 4° C. for 5 min and plasma was transferred into the centrifuge tube and stored at −80° C. until analysis. The extract from the plasma extracted by protein precipitation was analyzed by LC/MS/MS.

ROS1, sequence (P08922 28-2347): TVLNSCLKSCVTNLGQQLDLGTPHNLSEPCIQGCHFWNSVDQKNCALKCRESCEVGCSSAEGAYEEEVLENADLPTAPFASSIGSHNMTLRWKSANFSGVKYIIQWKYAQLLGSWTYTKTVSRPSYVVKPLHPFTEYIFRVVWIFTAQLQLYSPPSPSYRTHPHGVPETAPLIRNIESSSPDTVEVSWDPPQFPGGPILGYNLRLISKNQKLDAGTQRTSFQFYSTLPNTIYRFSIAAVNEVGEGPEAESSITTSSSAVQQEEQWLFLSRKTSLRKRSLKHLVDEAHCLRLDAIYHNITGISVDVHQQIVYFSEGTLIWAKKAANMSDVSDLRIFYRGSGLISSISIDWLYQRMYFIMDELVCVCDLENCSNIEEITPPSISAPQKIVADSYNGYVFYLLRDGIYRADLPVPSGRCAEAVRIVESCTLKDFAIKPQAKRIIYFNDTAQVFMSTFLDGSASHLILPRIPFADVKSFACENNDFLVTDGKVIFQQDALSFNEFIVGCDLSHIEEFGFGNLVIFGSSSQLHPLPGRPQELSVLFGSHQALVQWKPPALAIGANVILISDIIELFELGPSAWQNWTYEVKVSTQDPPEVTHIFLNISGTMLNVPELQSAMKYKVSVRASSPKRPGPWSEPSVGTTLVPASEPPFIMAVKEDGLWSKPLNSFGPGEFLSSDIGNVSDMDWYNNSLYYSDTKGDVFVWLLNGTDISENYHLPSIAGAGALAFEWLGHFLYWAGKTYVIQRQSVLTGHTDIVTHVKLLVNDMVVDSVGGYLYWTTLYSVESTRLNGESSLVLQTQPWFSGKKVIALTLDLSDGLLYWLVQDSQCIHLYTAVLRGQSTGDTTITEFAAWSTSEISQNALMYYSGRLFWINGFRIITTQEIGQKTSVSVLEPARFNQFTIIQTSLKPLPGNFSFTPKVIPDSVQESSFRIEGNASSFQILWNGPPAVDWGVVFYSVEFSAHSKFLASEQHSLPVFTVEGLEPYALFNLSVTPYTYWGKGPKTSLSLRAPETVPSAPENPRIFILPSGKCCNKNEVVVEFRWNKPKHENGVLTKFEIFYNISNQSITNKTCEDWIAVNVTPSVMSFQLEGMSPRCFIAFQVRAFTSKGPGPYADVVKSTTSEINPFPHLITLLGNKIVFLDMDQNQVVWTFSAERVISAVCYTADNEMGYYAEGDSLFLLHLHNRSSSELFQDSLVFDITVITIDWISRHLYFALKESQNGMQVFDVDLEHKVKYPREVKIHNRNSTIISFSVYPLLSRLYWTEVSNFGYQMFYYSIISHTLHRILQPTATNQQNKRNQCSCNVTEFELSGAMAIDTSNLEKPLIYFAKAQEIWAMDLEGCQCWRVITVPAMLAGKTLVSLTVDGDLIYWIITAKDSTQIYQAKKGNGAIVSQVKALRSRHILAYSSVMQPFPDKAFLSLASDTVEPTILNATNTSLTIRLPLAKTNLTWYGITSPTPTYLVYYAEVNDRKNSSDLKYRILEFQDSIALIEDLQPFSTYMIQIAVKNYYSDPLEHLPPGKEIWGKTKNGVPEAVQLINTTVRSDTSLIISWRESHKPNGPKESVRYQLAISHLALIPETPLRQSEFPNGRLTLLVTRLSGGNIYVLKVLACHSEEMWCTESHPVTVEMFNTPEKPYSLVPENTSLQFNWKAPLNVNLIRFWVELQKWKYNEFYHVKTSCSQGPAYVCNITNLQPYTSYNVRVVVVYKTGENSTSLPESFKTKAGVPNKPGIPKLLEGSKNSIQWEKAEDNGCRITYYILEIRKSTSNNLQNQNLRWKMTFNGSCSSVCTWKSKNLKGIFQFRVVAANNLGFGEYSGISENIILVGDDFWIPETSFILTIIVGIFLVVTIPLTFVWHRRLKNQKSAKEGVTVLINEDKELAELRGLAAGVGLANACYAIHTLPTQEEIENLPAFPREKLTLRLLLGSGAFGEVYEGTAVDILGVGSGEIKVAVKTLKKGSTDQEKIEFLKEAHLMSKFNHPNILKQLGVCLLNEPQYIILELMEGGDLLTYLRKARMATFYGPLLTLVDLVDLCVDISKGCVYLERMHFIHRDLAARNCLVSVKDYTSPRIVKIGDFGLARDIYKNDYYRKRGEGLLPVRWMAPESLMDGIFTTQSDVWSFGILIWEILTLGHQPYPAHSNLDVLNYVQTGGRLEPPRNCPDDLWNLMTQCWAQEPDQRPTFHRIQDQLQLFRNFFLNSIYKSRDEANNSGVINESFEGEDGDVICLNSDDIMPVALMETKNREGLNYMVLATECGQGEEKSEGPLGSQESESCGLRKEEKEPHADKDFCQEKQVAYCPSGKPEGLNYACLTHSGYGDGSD
TRKC, sequence (Q16288 other isoform, or with tags, fused parts or gaps isoform Q16288-3): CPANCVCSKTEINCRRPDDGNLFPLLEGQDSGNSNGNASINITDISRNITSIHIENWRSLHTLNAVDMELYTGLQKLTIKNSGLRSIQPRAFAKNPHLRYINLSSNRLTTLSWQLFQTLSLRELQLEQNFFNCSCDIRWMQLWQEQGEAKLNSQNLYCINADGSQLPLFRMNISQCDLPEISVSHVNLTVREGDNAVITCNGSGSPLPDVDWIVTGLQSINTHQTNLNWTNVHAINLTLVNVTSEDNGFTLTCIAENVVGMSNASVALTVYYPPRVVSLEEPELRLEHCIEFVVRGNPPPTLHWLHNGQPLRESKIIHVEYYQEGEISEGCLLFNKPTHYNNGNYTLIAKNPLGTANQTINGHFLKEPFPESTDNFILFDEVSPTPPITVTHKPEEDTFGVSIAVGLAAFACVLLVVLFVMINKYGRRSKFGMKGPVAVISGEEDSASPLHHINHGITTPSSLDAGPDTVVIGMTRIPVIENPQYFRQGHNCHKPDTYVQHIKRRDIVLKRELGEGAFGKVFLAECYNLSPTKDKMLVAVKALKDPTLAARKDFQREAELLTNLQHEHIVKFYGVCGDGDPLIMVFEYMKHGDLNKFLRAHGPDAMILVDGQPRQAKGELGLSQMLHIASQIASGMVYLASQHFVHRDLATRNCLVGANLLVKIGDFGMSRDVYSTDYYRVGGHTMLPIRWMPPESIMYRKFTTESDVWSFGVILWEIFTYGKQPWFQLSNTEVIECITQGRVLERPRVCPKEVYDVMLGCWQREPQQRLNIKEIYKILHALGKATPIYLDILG
T1 sequence (P04629 33-796): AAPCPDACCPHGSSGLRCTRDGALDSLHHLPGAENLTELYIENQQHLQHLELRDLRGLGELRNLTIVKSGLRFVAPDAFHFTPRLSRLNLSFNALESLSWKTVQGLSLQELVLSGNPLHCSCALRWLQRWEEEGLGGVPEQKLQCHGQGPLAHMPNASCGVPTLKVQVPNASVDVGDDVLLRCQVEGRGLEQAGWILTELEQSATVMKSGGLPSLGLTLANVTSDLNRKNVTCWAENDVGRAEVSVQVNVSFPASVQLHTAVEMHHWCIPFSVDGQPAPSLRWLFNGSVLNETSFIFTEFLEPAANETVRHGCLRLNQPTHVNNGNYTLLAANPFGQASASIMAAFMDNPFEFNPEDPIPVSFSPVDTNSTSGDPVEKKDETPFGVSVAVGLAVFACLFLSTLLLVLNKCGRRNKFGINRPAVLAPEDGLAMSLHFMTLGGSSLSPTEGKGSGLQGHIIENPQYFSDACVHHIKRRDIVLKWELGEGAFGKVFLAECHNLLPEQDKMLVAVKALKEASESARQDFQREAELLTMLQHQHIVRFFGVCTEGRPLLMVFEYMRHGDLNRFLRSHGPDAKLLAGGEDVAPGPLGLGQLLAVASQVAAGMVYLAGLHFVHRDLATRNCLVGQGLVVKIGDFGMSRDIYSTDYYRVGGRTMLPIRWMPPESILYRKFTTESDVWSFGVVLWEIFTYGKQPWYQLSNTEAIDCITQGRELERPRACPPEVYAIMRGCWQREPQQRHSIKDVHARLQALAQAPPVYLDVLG
TRKB, sequence (Q16620 32-822): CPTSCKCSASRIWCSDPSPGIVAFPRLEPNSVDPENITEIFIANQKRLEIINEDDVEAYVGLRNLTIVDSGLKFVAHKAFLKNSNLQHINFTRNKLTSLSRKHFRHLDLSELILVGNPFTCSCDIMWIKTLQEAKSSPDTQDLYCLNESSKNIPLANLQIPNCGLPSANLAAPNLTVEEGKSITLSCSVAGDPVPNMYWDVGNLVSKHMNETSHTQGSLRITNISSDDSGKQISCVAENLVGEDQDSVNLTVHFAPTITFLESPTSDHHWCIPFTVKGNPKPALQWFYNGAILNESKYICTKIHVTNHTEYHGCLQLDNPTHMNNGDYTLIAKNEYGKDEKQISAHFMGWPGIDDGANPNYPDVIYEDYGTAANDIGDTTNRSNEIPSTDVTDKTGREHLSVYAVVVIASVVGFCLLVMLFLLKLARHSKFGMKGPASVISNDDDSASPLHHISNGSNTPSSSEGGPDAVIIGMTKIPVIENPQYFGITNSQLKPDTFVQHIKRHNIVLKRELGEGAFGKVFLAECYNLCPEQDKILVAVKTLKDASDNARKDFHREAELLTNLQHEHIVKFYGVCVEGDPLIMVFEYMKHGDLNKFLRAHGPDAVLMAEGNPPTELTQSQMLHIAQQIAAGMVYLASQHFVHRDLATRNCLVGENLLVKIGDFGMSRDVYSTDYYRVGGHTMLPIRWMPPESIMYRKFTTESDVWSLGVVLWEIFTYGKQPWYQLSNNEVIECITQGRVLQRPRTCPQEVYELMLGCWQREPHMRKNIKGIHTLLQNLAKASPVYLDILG

Row | Compound | IC50 (TRKA [1]) | IC50 (ROS1) | IC50 (TRKB) | IC50 (TRKC) | further results
1 | CCc1cc2c(cc1N1CCC(N3CCOCC3)CC1)C(C)(C)c1[nH]c3cc(C#N)ccc3c1C2=O [Alectinib] |  |  |  |  | IC50 (TRKA [2]): 60.4 nM
2 | Cc1cc(Nc2ncc(Cl)c(Nc3ccccc3S(=O)(=O)C(C)C)n2)c(OC(C)C)cc1C1CCNCC1 [Ceritinib] |  |  |  |  | IC50 (TRKA [2]): 182 nM
3 | C[C@H]1Oc2cc(cnc2N)-c2c(nn(C)c2C#N)CN(C)C(=O)c2ccc(F)cc21 [Lorlatinib] |  |  |  |  | IC50 (TRKA [2]): 6.2 nM
4 | O=C(Nc1cnn2ccc(N3CCC[C@@H]3c3cc(F)ccc3F)nc12)N1CC[C@H](O)C1 [LOXO-101, reference compound] |  |  |  |  | IC50 (Ba/F3 LMNA-NTRK1-WT): 47.4 nM; IC50 (Ba/F3 LMNA-NTRK1-G595R): 2170 nM; IC50 (Ba/F3 ETV6-NTRK2-WT; 72 hrs, test batch marked *): 75.3 nM; IC50 (Ba/F3 ETV6-NTRK2-G639R; 72 hrs, test batch marked *): 8.18 µM; IC50 (Ba/F3 ETV6-NTRK3-WT; 72 hrs, test batch marked *): 6.8 nM
5 | C[C@H]1CNC(=O)c2cnn3ccc(nc23)N[C@H](C)c2cc(F)ccc2O1 [TPX-0005, reference compound] |  |  |  |  | IC50 (Ba/F3 ETV6-NTRK2-WT): 2.5 nM; IC50 (Ba/F3 ETV6-NTRK2-G639R): 0.0866 µM; IC50 (Ba/F3 ETV6-NTRK3-WT): 0.8 nM; IC50 (Ba/F3 LMNA-NTRK3-G623R): 9 nM; AUC(0-inf) [3]: 2950 ng·h/mL; Cmax [3]: 503 ng/mL; Tmax [3]: 1.33 h; half-life [3]: 213 min; Kp ([4]; brain/plasma, AUC0-inf ratio): 0.17; AUC(0-inf) ([4]; brain, read-out: AUC0-inf Brain): 2.35 µM·h; AUC(0-inf) ([4]; plasma, read-out: AUC0-inf Plasma): 13.9 µM·h

Continued, in another order:

Row | IC50 (TRKA [1]) | IC50 (ROS1) | IC50 (TRKB) | IC50 (TRKC) | Compound | further results
6 | 0.75 nM | 0.78 nM | 1.2 nM | 1.2 nM | C[C@@H]1COc2ccc(F)cc2[C@@H](C)Nc2ccn3ncc(c3n2)C(=O)O1 [Example 6, (1^3E,1^4E,3R,7R)-4^5-fluoro-3,7-dimethyl-5,8-dioxa-2-aza-1(5,3)-pyrazolo[1,5-a]pyrimidina-4(1,2)-benzenacyclononaphan-9-one] | 
7 | 1.1 nM | 1.2 nM | 1.6 nM | 1.1 nM | C[C@H]1Nc2ccn3ncc(c3n2)C(=O)OCCSc2ccc(F)cc21 [Example 25, (R,1^3E,1^4E)-4^5-fluoro-3-methyl-8-oxa-5-thia-2-aza-1(5,3)-pyrazolo[1,5-a]pyrimidina-4(1,2)-benzenacyclononaphan-9-one] | 
8 | 0.59 nM | 0.54 nM | 0.86 nM | 0.76 nM | C[C@H]1COC(=O)c2cnn3ccc(nc23)N[C@H](C)c2cc(F)ccc2S1 [Example 9, (1^3E,1^4E,3R,6S)-4^5-fluoro-3,6-dimethyl-8-oxa-5-thia-2-aza-1(5,3)-pyrazolo[1,5-a]pyrimidina-4(1,2)-benzenacyclononaphan-9-one] | 
9 | 0.39 nM | 4.8 nM | 0.48 nM | 0.63 nM | C[C@@H]1c2cc(F)ccc2OCCOC(=O)c2cnn3ccc(nc23)N1C [Example 23, (R,1^3E,1^4E)-4^5-fluoro-2,3-dimethyl-5,8-dioxa-2-aza-1(5,3)-pyrazolo[1,5-a]pyrimidina-4(1,2)-benzenacyclononaphan-9-one] | 
10 | 0.56 nM | 0.29 nM | 0.6 nM | 0.75 nM | C[C@H]1Nc2ccn3ncc(c3n2)C(=O)OCC(F)(F)Oc2ccc(F)cc21 [Example 24, (R,1^3E,1^4E)-4^5,6,6-trifluoro-3-methyl-5,8-dioxa-2-aza-1(5,3)-pyrazolo[1,5-a]pyrimidina-4(1,2)-benzenacyclononaphan-9-one] | 
11 | 0.62 nM | 1.9 nM | 0.9 nM | 0.73 nM | C[C@H]1Nc2ccn3ncc(c3n2)C(=O)OCCOc2ccc(F)cc21 [Example 13, (R,1^3E,1^4E)-4^5-fluoro-3-methyl-5,8-dioxa-2-aza-1(5,3)-pyrazolo[1,5-a]pyrimidina-4(1,2)-benzenacyclononaphan-9-one] | 

Source: patent publication US12129258B2, “Diaryl macrocyclic compound and pharmaceutical composition, and use thereof” (PrimeGene (Beijing) Co., Ltd., priority 2018, dated 2024)
